Test system: Notch signaling (hNotch1ΔE, human Notch1 receptor) in HeLa cells
Assay: Notch reporter assay (luciferase luminescence readout in transfected HeLa cells)
Assay type: cell-based
Conditions: Homo sapiens, 20 hours, relative to DMSO baseline level of 1.0, read-out: AVEw, weighted arithmetic mean of double-normalized Notch-reporter luciferase luminescence values (Activity Range)
Summary of the method: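 HeLa cells were transiently transfected for 24 h with membrane-tethered constitutively active hNotch1ΔE, a CSL-promoter Firefly luciferase reporter and constitutive SV40-Renilla luciferase. Compounds were then applied at 10 μM (0.1% DMSO) for 20 h. Firefly/Renilla dual-luciferase ratios were normalized to DMSO control (baseline 1.0), outliers were excluded, and replicate values were averaged across ≥3 independent experiments.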

Row | Compound | fold induction at 10 µM
1 | NC(=O)c1ccc(Oc2ccc(C3CC4CCC3C4)cc2)cc1 (racemic) [Compound 159, (±)-4-(4-(Bicyclo[2.2.1]heptan-2-yl)phenoxy)benzamide] | 1.1 to 1.2
2 | CCCc1ccc(Oc2ccc(C(=O)NO)cc2)cc1 [Compound 166, N-hydroxy-4-(4-propylphenoxy)benzamide] | 1.2 to 1.3
3 | CCC(C)(C)c1ccc(Oc2ccc(C(=O)NO)cc2)cc1 [Compound 171, N-hydroxy-4-(4-(tert-pentyl)phenoxy)benzamide] | 1.1 to 1.2
4 | O=C(NO)c1ccc(Oc2ccc(C3CCCCC3)cc2)cc1 [Compound 182, 4-(4-cyclohexylphenoxy)-N-hydroxybenzamide] | 1.3 to 1.4
5 | O=C(NO)c1ccc(Oc2ccc(C34CC5CC(CC(C5)C3)C4)cc2)cc1 [Compound 186, 4-(4-(Adamantan-1-yl)phenoxy)-N-hydroxybenzamide] | ≥ 2
6 | CC(C)c1ccc(Oc2ccc(C(=O)NO)cn2)cc1 [Compound 272, N-hydroxy-6-(4-isopropylphenoxy)nicotinamide] | 1.7 to 2
7 | CCC(C)(C)c1ccc(Oc2ccc(C(=O)NO)cn2)cc1 [Compound 273, N-hydroxy-6-(4-(tert-pentyl)phenoxy)nicotinamide] | 1.2 to 1.3
8 | O=C(NO)c1ccc(Oc2ccc(C3CCCCC3)cc2)nc1 [Compound 284, 6-(4-Cyclohexylphenoxy)-N-hydroxynicotinamide] | 1.7 to 2
9 | O=C(NO)c1ccc(Oc2ccc(C3CC4CCC3CC4)cc2)nc1 (stereo not drawn) [Compound 287, 6-(4-((1s,4s)-bicyclo[2.2.2]octan-2-yl)phenoxy)-N-hydroxynicotinamide] | 1.1 to 1.2
10 | O=C(NO)c1ccc(Oc2ccc(C34CC5CC(CC(C5)C3)C4)cc2)nc1 [Compound 288, 6-(4-((3r,5r,7r)-adamantan-1-yl)phenoxy)-N-hydroxynicotinamide] | 1.7 to 2
11 | CNC(=O)c1ccc(Oc2ccc(C(F)(F)F)cc2)nc1 [Compound 300, N-methyl-6-(4-(trifluoromethyl)phenoxy)nicotinamide] | 1.1 to 1.2
12 | CN(C)C(=O)c1ccc(Oc2ccc(C3CCCCC3)cc2)nc1 [Compound 334, 6-(4-cyclohexylphenoxy)-N,N-dimethylnicotinamide] | 1.3 to 1.4
13 | O=C(NO)c1ccc(Oc2ccc(C34CC5CC(CC(C5)C3)C4)cc2)c(F)c1 [Compound 544, 4-(4-(Adamantan-1-yl)phenoxy)-3-fluoro-N-hydroxybenzamide] | 1.4 to 1.7
14 | O=C(NO)c1cnc(Oc2ccc(C3CCCCC3)cc2)c(F)c1 [Compound 644, 6-(4-Cyclohexylphenoxy)-5-fluoro-N-hydroxynicotinamide] | 1.1 to 1.2
15 | Oc1ccc(C=Cc2cc(O)cc(O)c2)cc1 [RES, resveratrol, reference compound] | 1.5

Source: patent US12600696B2 (XENIOPRO GMBH, priority 2017, dated 2026)
